# According to patent US4098823A, “Monospiroalkyl derivatives of prostaglandins” (Miles Laboratories, Inc., priority 1977, dated 1978):
# What was measured:
# [1] = system: rat stomach fundus; experiment: Cascade Assay, stomach (smooth muscle stimulant effect); type: cell-based; conditions: superfused, 50% of maximum (PGE1)
# Experimental: (§1) The smooth muscle stimulant effects of test compounds were determined simultaneously in four different tissues that are known to be reactive to naturally occurring prostaglandins. Segments of rat stomach fundus, rat colon, chick rectum and rabbit aortic strip were obtained as described by: Vane, J. R., Brit. J. Pharmacol., 12: 344 (1957); Regoli, D. and Vane, J. R., Brit. J. Pharmacol., 23: 351 (1964); Mann, M. and West, G. B., Brit. J. Pharmacol., 5: 173 (1950); and Furchgott, R. F. and Bhadrakom, R., J. Pharmacol. Exper. Ther., 108: 129 (1953). One end of each preparation was tied to the bottom of a 10 ml tissue chamber and the other to a force displacement transducer (Grass FT-03) for continuous tension recording. The stomach, colon, and rectum segments were stretched to an initial tension of 1 g, while the aortic strip was subjected to 4 g. All preparations were left undisturbed for 1 hour prior to testing. The chambers were equipped with an external jacket through which water, maintained at 40° C, was circulated. Preparations were arranged one beneath the other in descending order (aorta, stomach, colon and rectum). Provision was made for bathing the four tissues successively so that they were superfused with the same fluid (Gaddum, H. J., Brit. J. Pharmacol., 6: 321 [1953]. The bathing fluid consisted of: Krebs bicarbonate solution aerated with a mixture of 95% O2 and 5% CO2 and warmed at 37° C; atropine sulphate (0.1 mcg/ml), phenoxybenzamine hydrochloride (0.1 mcg/ml), propranolol hydrochloride (3.0 mcg/ml), methysergide maleate (0.2 mcg/ml) and brompheniramine maleate (0.1 mcg/ml) were added to eliminate the possibility of smooth muscle responses being due to stimulation of cholinergic, adrenergic, serotonin or histamine receptors. The fluid was circulated by means of a roller pump and was allowed to drip over the preparations at a rate of 10 ml/minute.
# (§2) Test compounds were diluted from stock solutions so as to administer quantities ranging from 0.001 100,000 ng in a volume of 0.5 ml. The compounds were applied by dripping on the uppermost tissue, at intervals of 10 to 20 minutes. Maximal increases in tension after each dose were measured and the results were used to plot dose-response curves. ED50 data (doses necessary to produce a response 50% of maximum) were then calculated graphically for each tissue.
# (§3) Activity in each tissue was scored according to the following scale: […]
# [2] = system: Rat Uterus; experiment: Effects on the Rat Uterus in Vitro; type: cell-based; conditions: in vitro, 29° C, response 50% that of carbachol; for EC50: Rattus norvegicus, read-out: Test F Rat Uterus, Activity Value (ED50)
# Experimental: The uterine stimulant effect of test compounds was determined in segments of uterus obtained from rats (140-160 g) pretreated subcutaneously with 1 mg/kg of diethyl-stilbesterol 18 hours before the experiment. The tissues were placed in 10 ml chambers filled with de-Jalon solution at 29° C, were aerated and bubbled with 95% O2 and 5% CO2, and were prepared for isometric recording with force displacement transducers. Preparations were stretched to an initial tension of 1 g and were left undisturbed for 30 minutes. Carbachol (1 mcg/ml) was then added to the bath and a response was recorded. After a 10 minute interval the carbachol procedure was repeated. Responses to increasing concentrations of a test compound (0.001 to 10 mcg/ml with one log intervals) were then recorded every 10 minutes. Preparations were washed four times after each response. All doses of compounds were administered in a 0.1 ml volume. Because it has been observed that the magnitude of the second response to carbachol (approximately 10% greater than the first) is close to the maximal response of the tissue, such value was taken as a measure of the sensitivity of a particular segment. Responses to each concentration of the test compound were expressed in terms of percentage of the second response to carbachol and the ED50 (dose producing a response 50% that of carbachol) was calculated graphically. Activity was scored according to the following scale: […]
# [3] = system: Blood Pressure and Heart Rate; experiment: Effects on Blood Pressure and Heart Rate in the Anesthetized Cat; type: in vivo; conditions: intravenous, 0.01 to 10.0 mcg/kg, scored only on hypotension; for ED (50 mmHg): Felis catus, read-out: Test D Activity Value (ED50 mmHg, decrease in blood pressure);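 on all read-outs here: Anesthetized cats given intravenous doses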
# Experimental: The acute effects of test compounds on blood pressure and heart rate were determined in cats of either sex anesthetized with a mixture of pentobarbital sodium (35 mg/kg, i.v.) and barbital sodium (100 mg/kg, i.v.). Cannulas were placed in the trachea to allow adequate spontaneous ventilation, in a femoral artery for blood pressure recording with a strain gage transducer, and in a saphenous vein for drug administration. Heart rate was recorded by means of a cardiotachometer driven by the R wave of the electrocardiogram. After a period of 10 minutes of stable recordings of blood pressure and heart rate, the test compound was administered intravenously at doses increasing from 0.01 to 10.0 mcg/kg, spaced one log and injected at 10 minutes intervals. All doses were injected in a volume of 0.1 ml/kg. Modifications of blood pressure and heart rate induced by the test compound were expressed both in absolute units (mmHg and beats/minutes) and as percent of values recorded immediately before administration of each dose. Biphasic responses were tabulated in the order in which they occur. The direction of the observed changes was also noted (+ for increases and - for decreases).
# Activity of compounds in this test was judged only on the basis of the degree of hypotension observed. Thus, the ED50 mmHg (dose decreasing blood pressure by 50 mmHg) was calculated graphically and the compound scored according to the following scale: […]
# [4] = system: Gastric Secretion; experiment: Effects on Gastric Secretion in the Rat; type: in vivo; conditions: pylorus-ligated rat, subcutaneous, 2 x 1.5 mg/kg (total 3.0 mg/kg), 4 hours
# Experimental: A procedure based on that described by Lipmann (J. Pharm. Pharmacol., 21:335 [1968]) was used to assess the influence of test compounds on gastric secretion. Rats of one sex weighing 150 to 200 g were randomly divided into groups of six animals each and fasted for 48 hours previously to the experiments, water being available adlibitum. The animals were anesthetized with ether, the abdomen was opened through a midline incision and the pylorus was ligated. Test compounds were diluted from stock solution so as to administer a dose of 1.5 mg/kg in a volume equivalent to 1 ml/kg. Subcutaneous injections were applied immediately after surgery and again 2 hours later, so that a total dose of 3.0 mg/kg was administered. Dilutions were made with phosphate buffer (pH 7.38) as recommended by Lee et al. (Prostaglandins 3:29 [1973]), in order to insure adequate stability of drugs at the subcutaneous depot. Each compound was tested in one group of rats; an additional control group received only the vehicle.
# Four hours after pyloric ligation the animals were killed with ether, the cardias ligated and the stomachs removed. The volume of gastric secretion was measured and the contents centrifuged at 500 rpm for 10 minutes. Total acid in the supernatant was titrated against a 0.1 N sodium hydroxide solution and the amount expressed in mEq.
# Volume and total acid values of the treated group were compared with those of the controls by the "T" test. Antisecretory activity was scored according to the following scale: […]
# [5] = system: rat colon; experiment: Cascade Assay, colon (smooth muscle stimulant effect); type: cell-based; conditions: superfused, 50% of maximum (PGF2α)
# Experimental: as §1, §2, §3
# [6] = system: chick rectum; experiment: Cascade Assay, rectum (smooth muscle stimulant effect); type: cell-based; conditions: superfused, 50% of maximum (PGE1)
# Experimental: as §1, §2, §3
# [7] = system: Femoral Blood Flow; experiment: Effects on Femoral Blood Flow in the Dog; type: in vivo; conditions: anesthetized mongrel dog, intraarterial, 0.001 to 10 mcg
# Experimental: The peripheral vasodilator or constrictor effects of these compounds were determined in mongrel dogs of either sex, weighing between 10 and 20 kg anesthestized intravenously with 35 mg/kg of sodium pentobarbital. An external iliac artery was dissected immediately above the femoral arch for a length of approximately 5 cm and a previously calibrated, non-connulating electromagnetic flowmeter sensor with a lumen between 2.5 and 3.5 mm was placed snugly around the vessel. Cannulas were placed in a branch of the artery arising distally to the location of the flowmeter sensor for intraarterial drug administrations, in the contralateral femoral artery for systemic blood pressure recordings and in the trachea for artificial respiration with room air. Femoral blood flow and systemic blood pressure were continously recorded with an electromagnetic flowmeter and pressure tranducer, respectively.
# After an adequate control period, test compounds were injected intraarterially at one log-spaced doses ranging from 0.001 to 10 mcg., in a volume of 0.5 ml and at 5 to 10 minute intervals. Maximum changes in bloodflow, as well as any variations in blood pressure, were tabulated for each dose in absolute values (ml/min. and mmHg). The calculations were made taking as control values those existing immediately before administration of each dose. The direction of the observed change (plus for increase and minus for decrease) was also noted. The dose changing bloodflow by 100 ml/min (ED100 ml/min) was calculated graphically and was used for scoring activity as follows: […]
# [8] = system: rabbit aortic strip; experiment: Cascade Assay, aorta (smooth muscle stimulant effect); type: cell-based; conditions: superfused, 50% of maximum (PGA2)
# Experimental: as §1, §2, §3
Structure (SMILES),"Test E Cascade Assay, Stomach, Activity Value (ED50) [1]",EC50 [2] [µg/mL],ED (50 mmHg) [3] [mg/kg],"Test B Activity Value (% decrease in acidity, inhibition of gastric secretion) [4]","Test E Cascade Assay, Colon, Activity Value (ED50) [5]","Test E Cascade Assay, Rectum, Activity Value (ED50) [6]","Test C Activity Value (ED100 ml/min, increase in femoral blood flow) [7]","Test E Cascade Assay, Aorta, Activity Value (ED50) [8]","Test F Rat Uterus, Activity Value (ED50) [2]","Test D Activity Value (ED50 mmHg, decrease in blood pressure) [3]"
"O=C(O)CCCCCC[C@H]1C(=O)CC[C@@H]1/C=C/[C@H](O)C1CCC2(CCCCC2)CC1 (relative stereo) [TR-4020, dl 7-{5-oxo-2R-[3R-hydroxy-3-(spiro[5.5]undecan-3-yl)-1E-propenyl]cyclopent-1R-yl}heptanoic acid]",2 (101 - 1000),> 10,> 0.01,0 (<26),0 (>10000),0 (>10000),0 (>10.0),0 (>10000),–,–
"O=C(O)CCCCCC[C@H]1C(=O)CC[C@@H]1/C=C/[C@@H](O)C1CCC2(CCCCC2)CC1 (relative stereo) [TR-4021, dl 7-{5-oxo-2R-[3S-hydroxy-3-(spiro[5.5]undecan-3-yl)-1E-propenyl]cyclopent-1R-yl} heptanoic acid]",4 (<10),> 10,> 0.01,0 (<26),0 (>10000),0 (>10000),0 (>10.0),0 (>10000),–,–
"O=C(O)CCCCCC[C@H]1C(=O)CC[C@@H]1/C=C/[C@H](O)C1CC2(CCC2)C1 (relative stereo) [TR-4137, dl 7-{5-oxo-2R-[3R-hydroxy-3-(spiro[3.3]hept-2-yl)-1E-propenyl]cyclopent-1R-yl}heptanoic acid]",1 (1001 - 10000),> 10,0.00011 to 0.001,3 (51-75),0 (>10000),–,3 (0.01 - 0.1),0 (>10000),–,–
"O=C(O)CCC/C=C\C[C@H]1C(=O)CC[C@@H]1/C=C/[C@@H](O)C1CC2(CCC2)C1 (relative stereo) [TR-4146, dl 7-{5-oxo-2R-[3S-hydroxy-3-(spiro[3.3]hept-2-yl)-1E-propenyl]cyclopent-1R-yl}hept-5Z-enoic acid]",1 (1001 - 10000),> 10,> 0.01,0 (<26),2 (101 - 1000),–,0 (>10.0),0 (>10000),–,–
"COC(=O)CCCCCC[C@H]1C(=O)C=C[C@H]1/C=C/[C@H](O)C1CC2(CCC2)C1 [TR-4127, Methyl 7-{5-oxo-2R-[3R-hydroxy-3-(spiro[3.3]hept-2-yl)-1E-propenyl]cyclopent-3-en-1R-yl}hepanoate]",0 (>10000),–,–,–,0 (>10000),0 (>10000),–,0 (>10000),0 (>10),0 (>10.0)
"COC(=O)CCCCCC[C@@H]1[C@@H](/C=C/[C@@H](O)C2CC3(CCC3)C2)[C@H](O)C[C@H]1O [TR-4138, Methyl 7-{3R, 5R-dihydroxy-2R-[3S-hydroxy-3-(spirol[3.3]hept-2-yl)-1E-propenyl]cyclopent-1R-yl}heptanoate]",0 (>10000),> 10,> 0.01,–,0 (>10000),0 (>10000),–,0 (>10000),–,–
